For the first assay, the target named is T1, CFTR (Homo sapiens, UniProt P13569).
T1 construct: host or cells: Human colonic T84 cells
T1 sequence (P13569 whole entry): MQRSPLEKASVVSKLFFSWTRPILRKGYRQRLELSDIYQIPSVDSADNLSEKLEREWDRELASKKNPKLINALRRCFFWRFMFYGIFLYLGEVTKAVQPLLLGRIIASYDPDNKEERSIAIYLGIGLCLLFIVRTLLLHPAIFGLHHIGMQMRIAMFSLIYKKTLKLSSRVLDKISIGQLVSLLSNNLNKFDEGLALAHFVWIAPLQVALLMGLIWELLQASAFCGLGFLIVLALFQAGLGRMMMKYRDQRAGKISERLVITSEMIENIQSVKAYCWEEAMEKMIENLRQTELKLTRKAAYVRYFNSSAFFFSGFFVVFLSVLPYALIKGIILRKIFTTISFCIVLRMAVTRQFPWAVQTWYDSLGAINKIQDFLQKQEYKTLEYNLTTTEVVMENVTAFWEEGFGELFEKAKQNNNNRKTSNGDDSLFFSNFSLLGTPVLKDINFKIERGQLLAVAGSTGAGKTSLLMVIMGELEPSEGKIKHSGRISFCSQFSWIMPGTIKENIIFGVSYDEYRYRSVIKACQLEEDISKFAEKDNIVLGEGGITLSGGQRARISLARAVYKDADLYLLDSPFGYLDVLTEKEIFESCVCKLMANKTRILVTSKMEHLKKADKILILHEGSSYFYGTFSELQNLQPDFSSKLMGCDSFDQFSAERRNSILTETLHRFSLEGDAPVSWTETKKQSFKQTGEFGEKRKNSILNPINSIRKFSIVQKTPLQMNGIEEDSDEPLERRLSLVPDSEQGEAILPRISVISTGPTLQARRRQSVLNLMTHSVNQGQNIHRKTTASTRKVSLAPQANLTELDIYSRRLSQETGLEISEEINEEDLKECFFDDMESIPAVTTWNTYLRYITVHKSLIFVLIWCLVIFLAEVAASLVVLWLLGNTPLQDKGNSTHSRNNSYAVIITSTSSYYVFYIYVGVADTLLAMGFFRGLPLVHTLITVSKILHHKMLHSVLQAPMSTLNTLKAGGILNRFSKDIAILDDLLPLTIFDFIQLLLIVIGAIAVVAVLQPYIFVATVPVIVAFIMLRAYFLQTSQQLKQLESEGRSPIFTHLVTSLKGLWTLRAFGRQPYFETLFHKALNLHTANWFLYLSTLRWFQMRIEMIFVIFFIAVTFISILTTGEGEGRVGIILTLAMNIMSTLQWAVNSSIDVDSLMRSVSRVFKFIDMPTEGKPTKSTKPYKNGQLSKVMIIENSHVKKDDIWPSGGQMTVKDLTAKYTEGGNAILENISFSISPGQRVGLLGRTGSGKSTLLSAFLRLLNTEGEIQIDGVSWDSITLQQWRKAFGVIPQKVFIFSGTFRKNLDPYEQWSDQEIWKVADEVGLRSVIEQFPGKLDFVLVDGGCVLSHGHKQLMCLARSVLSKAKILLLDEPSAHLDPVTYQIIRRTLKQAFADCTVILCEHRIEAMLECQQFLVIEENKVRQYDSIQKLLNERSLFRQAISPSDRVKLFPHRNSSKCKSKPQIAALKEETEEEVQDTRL
Description: T84 assay (FLIPR membrane potential, forskolin/IBMX-stimulated CFTR channel activity). The format is cell-based. As to conditions: Human colonic T84 cells; average of at least 2 runs unless annotated n = 1. As to the method: (§1) For example, Human colonic T84 cells can be acquired from the European Collection of Cell Cultures (ECACC) and grown in standard culture conditions as described by the supplier. On the day before assay 25,000 T84 cells per well are plated into standard black walled, clear bottom 384-well assay plates in standard growth medium consisting of DMEM:F12 with 10% FBS and incubated overnight. On the day of the assay the plates are washed using a standard assay buffer (HBSS with 10 mM Hepes) and incubated for 15 minutes in serum free cell culture medium before the addition of a commercially available membrane potential sensitive fluorescent dye (FLIPR Red membrane potential dye, Molecular Devices Corporation). T84 cells are incubated with the FLIPR Red membrane potential dye for 45 minutes in the presence and absence of test compound before being transferred to a commercially available fluorescence imaging plate reader (FLIPR384, Molecular Devices Corporation). Fluorescence levels are monitored continuously every second for 150 seconds; after an initial 10 second baseline, CFTR channel activity is stimulated through the addition of 10 μM forskolin in the presence of 100 μM of the phosphodiesterase inhibitor iso-butyl-methylxanthine (IBMX). Addition of the forskolin leads to the activation of intracellular adenylyl cylase 1, elevating cAMP levels and results in the phosphorylation and opening of CFTR anion channels. CFTR channel opening causes chloride ion efflux and subsequent depolarization of the cells, which is measured by an increase in fluorescence. CFTR inhibitor compounds prevent cell depolarization and the associated increase in fluorescence.
as §1, with “Human colonic” for “For example, Human colonic”, “T84 cells are acquired from” for “T84 cells can be acquired from”, “(ECACC) and are grown in” for “(ECACC) and grown in”
`O=C(c1cc(-c2cc(Cl)c(O)c(Cl)c2)nnc1OCCc1ccc(Cl)cc1)N(CCO)Cc1ccccc1` [Compound 11, N-benzyl-3-(4-chlorophenethoxy)-6-(3,5-dichloro-4-hydroxyphenyl)-N-(2-hydroxyethyl)pyridazine-4-carboxamide] had an IC50 of 8.26 µM. The compound `COc1cc(CN2CCN(c3cc(-c4cc(Cl)c(O)c(Cl)c4)nnc3OCCc3ccc(Cl)cc3)CC2)ccc1OCCN1CCN(C)CC1` [Compound 23, 2,6-dichloro-4-(6-(4-chlorophenethoxy)-5-(4-(3-methoxy-4-(2-(4-methylpiperazin-1-yl)ethoxy)benzyl)piperazin-1-yl)pyridazin-3-yl)phenol] displayed an IC50 of 2.33 µM.

Turning to `O=C(c1cc(-c2cc(Cl)c(O)c(Cl)c2)nnc1OCCc1ccc(Cl)cc1)N(CCO)Cc1cccnc1` [Compound 24, 3-(4-chlorophenethoxy)-6-(3,5-dichloro-4-hydroxyphenyl)-N-(2-hydroxyethyl)-N-(pyridin-3-ylmethyl)pyridazine-4-carboxamide], the IC50 was 19.4 µM.

For `O=C(c1cc(-c2cc(Cl)c(O)c(Cl)c2)nnc1OCCc1ccc(Cl)cc1)N(CCO)Cc1ccccn1` [Compound 25, 3-(4-chlorophenethoxy)-6-(3,5-dichloro-4-hydroxyphenyl)-N-(2-hydroxyethyl)-N-(pyridin-2-ylmethyl)pyridazine-4-carboxamide], the IC50 was determined as 14.7 µM.

`O=C(c1cc(-c2cc(Cl)c(O)c(Cl)c2)nnc1OCCc1ccc(Cl)cc1)N(Cc1ccccc1)CC(F)(F)F` [Compound 26, N-benzyl-3-(4-chlorophenethoxy)-6-(3,5-dichloro-4-hydroxyphenyl)-N-(2,2,2-trifluoroethyl)pyridazine-4-carboxamide] came in with an IC50 of 23.5 µM. For the compound `CCN(Cc1ccccc1)C(=O)c1cc(-c2cc(Cl)c(O)c(Cl)c2)nnc1OCCc1ccc(Cl)cc1` [Compound 27, N-benzyl-3-(4-chlorophenethoxy)-6-(3,5-dichloro-4-hydroxyphenyl)-N-ethylpyridazine-4-carboxamide], the IC50 is 17 µM. `CN(Cc1ccccc1)C(=O)c1cc(-c2cc(Cl)c(O)c(Cl)c2)nnc1OCCc1ccc(Cl)cc1` [Compound 28, N-benzyl-3-(4-chlorophenethoxy)-6-(3,5-dichloro-4-hydroxyphenyl)-N-methylpyridazine-4-carboxamide] yielded an IC50 of 10.2 µM. The same measure, in the same setting: in the case of `COCCN(Cc1ccccc1)C(=O)c1cc(-c2cc(Cl)c(O)c(Cl)c2)nnc1OCCc1ccc(Cl)cc1` [Compound 29, N-benzyl-3-(4-chlorophenethoxy)-6-(3,5-dichloro-4-hydroxyphenyl)-N-(2-methoxyethyl)pyridazine-4-carboxamide] it was 8.5 µM.

Turning to `O=C(c1cc(-c2cc(Cl)c(O)c(Cl)c2)nnc1OCCc1ccc(Cl)cc1)N(CCO)Cc1ccc(Cl)c(Cl)c1` [Compound 30, 3-(4-chlorophenethoxy)-6-(3,5-dichloro-4-hydroxyphenyl)-N-(3,4-dichlorobenzyl)-N-(2-hydroxyethyl)pyridazine-4-carboxamide], the midpoint of inhibition, the IC50, lay at 19 µM.

On to `COc1ccc(CN(CCO)C(=O)c2cc(-c3cc(Cl)c(O)c(Cl)c3)nnc2OCCc2ccc(Cl)cc2)cc1` [Compound 31, 3-(4-chlorophenethoxy)-6-(3,5-dichloro-4-hydroxyphenyl)-N-(2-hydroxyethyl)-N-(4-methoxybenzyl)pyridazine-4-carboxamide], for which the midpoint of inhibition, the IC50, lay at 25.2 µM. Still for that read-out and setting: the same measure for `O=C(c1cc(-c2cc(Cl)c(O)c(Cl)c2)nnc1OCCc1ccc(Cl)cc1)N(CCO)Cc1ccc2c(c1)OCO2` [Compound 32, N-(benzo[d][1,3]dioxol-5-ylmethyl)-3-(4-chlorophenethoxy)-6-(3,5-dichloro-4-hydroxyphenyl)-N-(2-hydroxyethyl)pyridazine-4-carboxamide]: 16.1 µM; for `COc1ccc(CN(CCO)C(=O)c2cc(-c3cc(Cl)c(O)c(Cl)c3)nnc2OCCc2ccc(Cl)cc2)cc1OC` [Compound 33, 3-(4-chlorophenethoxy)-6-(3,5-dichloro-4-hydroxyphenyl)-N-(3,4-dimethoxybenzyl)-N-(2-hydroxyethyl)pyridazine-4-carboxamide]: 13.7 µM. For the compound `CC(C)(C)c1ccc(CNC(=O)c2cc(-c3cc(Cl)c(O)c(Cl)c3)nnc2OCCc2ccc(Cl)cc2)cc1` [Compound 34, N-(4-tert-butylbenzyl)-3-(4-chlorophenethoxy)-6-(3,5-dichloro-4-hydroxyphenyl)pyridazine-4-carboxamide], the IC50 was found to be 20.1 µM.

The test system of the next assay is cholera toxin (CTX)-induced net fluid secretion in small intestine loops.
Assay: not given
The format is in vivo, mice (CD1 strain). Conditions: 4 hours.
For the compound `O=C(c1cc(-c2cc(Cl)c(O)c(Cl)c2)nnc1OCCc1ccc(Cl)cc1)N(CCO)Cc1ccccc1` [Compound 11, N-benzyl-3-(4-chlorophenethoxy)-6-(3,5-dichloro-4-hydroxyphenyl)-N-(2-hydroxyethyl)pyridazine-4-carboxamide], the “closed loop % inhibition@100 μg” value was 63.2%.

As usually defined, the IC50 is the concentration at which inhibition is half-maximal.
